This is an account of results in paper PMC8443696, “Structural determinants and regulation of spontaneous activity in GABAA receptors” (Nature Communications, 2021).

Format in all cases: cell-based, mouse
The test system of one assay is T1, α4β2δ receptor.
T1 construct: expressed in transfected cells; host or cells: HEK 293
Briefly: Quantification of spontaneous activity (Ispont) in HEK cells, whole-cell patch clamp. The source says: (§1) All components were obtained from Life Technologies.
(§2) Currents were acquired with Clampex ver.
(§3) Cells were voltage clamped at −40 mV.
(§4) For assessment of the efficacy of allosteric modulators on spontaneous activity, compounds were briefly applied (3–5 s) to achieve steady-state currents (IMod). […] The IMod was summed with IPTX (or subtracted for inhibitory modulators) and the Ispont calculated, as described by Eq. (2):2 Ispont(%)=[(IPTX+IMod)/(IPTX+IMax)]×100……………………………………
(In general: The patch-clamp technique gives a direct electrical read-out from membranes.)

A further assay deals with T2, α4β3δ GABAARs.
T2 construct: expressed in transfected cells; host or cells: HEK cells (outside-out patches)
Briefly: Single-channel recording of spontaneous currents, outside-out patches of HEK cells. The settings on record: 100 nM THDOC, absence of GABA, individual patches. Here is the method: To limit ion channel density in individual patches, HEK cells were transfected with 5 ng α4, β3, δ and eGFP cDNAs. Resulting spontaneous single-channel currents were digitised at a sampling rate of 20 kHz and filtered at 5 kHz with a 4-pole Bessel filter (24 dB per octave). A fixed time resolution of 80 μs was used as a preset. Recordings were undertaken using thick-walled borosilicate patch pipettes (6–10 MΩ) filled with a solution containing (mM): 145 CsCl, 2.5 NaCl, 10 HEPES, 1 EGTA, 4 MgATP, pH 7.3. Osmolarity was 300 ± 20 mOsm/L. Cells were perfused with an external solution consisting of (mM): 145 NaCl, 2.5 KCl, 1 CaCl2, 1 MgCl2, 10 HEPES, 10 glucose, pH 7.3. Prior control recordings were obtained using untransfected HEK cells to identify endogenous channel currents.
Channel currents were digitally low pass filtered at 1–2 kHz prior to analysis. […] Channel dwell states were identified using a threshold cursor method. This state transition detection method for open and shut events was used to assemble an idealised record of the digitised data. Open times affected by channel stacking were not included in the analyses and sub-conductance states were also rare and excluded from the analysis.
The analysis of the dwell times for single-channel currents was performed by fitting a mixture of exponential components to the open time distributions. These defined the mean open times and their relative proportions (area of the components) based on using a Levenberg-Marquardt non-linear least-squares routine (WinEDR ver 3.8.7, courtesy of J Dempster, University of Strathclyde).

A further assay addresses T3, α4β3δ receptors (UniProt P18506+P63080+Q9D6F4).
T3 construct: expressed in transfected cells; host or cells: HEK 293
The settings on record: for Ispont in the presence of modulator: PS 10 µM (Fig. 6c).
Description: as §1, §2, §3, §4

In a further assay the test system is T4, α1β3γ2L receptors.
T4 construct: expressed in transfected cells; host or cells: HEK 293
Briefly: Quantification of spontaneous activity (Ispont) in HEK cells, whole-cell patch clamp. To be noted: α1β3γ2L THIP (Fig. 1d); THIP 3 mM, PTX 100 µM; individual cells.
Description: as §1, §2, §3, §4

In a further assay the test system is T5, α4^Q246Mβ3δ receptors.
T5 construct: expressed in transfected cells; host or cells: HEK 293
The assay is described as above. The settings on record: α4Q246Mβ3δ, PS 10 µM (Fig. 6c).
Description: as §1, §2, §3, §4

The test system of the next assay is T6, α4β3^S409Aδ receptors.
T6 construct: expressed in transfected cells; host or cells: HEK 293
Described as above. To be noted: α4β3S409Aδ, PS 10 µM (Fig. 6c).
Description: as §1, §2, §3, §4

Values joined by “and” are separate entries in the source; they are usually repeats but may differ in a detail not shown here. Identical values can stand only once. Like-named read-outs stand apart in the source and are kept apart here.

T3 sequence (Q9D6F4 36-552): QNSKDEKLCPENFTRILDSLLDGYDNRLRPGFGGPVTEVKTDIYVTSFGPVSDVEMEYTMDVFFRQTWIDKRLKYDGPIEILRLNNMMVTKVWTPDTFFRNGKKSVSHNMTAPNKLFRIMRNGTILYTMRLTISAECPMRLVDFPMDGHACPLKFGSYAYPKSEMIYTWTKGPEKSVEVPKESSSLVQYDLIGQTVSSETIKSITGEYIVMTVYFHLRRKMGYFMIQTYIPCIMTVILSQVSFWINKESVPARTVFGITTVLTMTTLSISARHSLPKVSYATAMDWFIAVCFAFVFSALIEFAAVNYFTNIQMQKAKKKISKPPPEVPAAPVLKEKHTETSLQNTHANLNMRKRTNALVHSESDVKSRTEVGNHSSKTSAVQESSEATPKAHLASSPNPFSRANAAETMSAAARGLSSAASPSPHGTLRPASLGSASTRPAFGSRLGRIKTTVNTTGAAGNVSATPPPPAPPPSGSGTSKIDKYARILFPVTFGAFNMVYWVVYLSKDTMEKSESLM
T3 sequence (P63080 26-473): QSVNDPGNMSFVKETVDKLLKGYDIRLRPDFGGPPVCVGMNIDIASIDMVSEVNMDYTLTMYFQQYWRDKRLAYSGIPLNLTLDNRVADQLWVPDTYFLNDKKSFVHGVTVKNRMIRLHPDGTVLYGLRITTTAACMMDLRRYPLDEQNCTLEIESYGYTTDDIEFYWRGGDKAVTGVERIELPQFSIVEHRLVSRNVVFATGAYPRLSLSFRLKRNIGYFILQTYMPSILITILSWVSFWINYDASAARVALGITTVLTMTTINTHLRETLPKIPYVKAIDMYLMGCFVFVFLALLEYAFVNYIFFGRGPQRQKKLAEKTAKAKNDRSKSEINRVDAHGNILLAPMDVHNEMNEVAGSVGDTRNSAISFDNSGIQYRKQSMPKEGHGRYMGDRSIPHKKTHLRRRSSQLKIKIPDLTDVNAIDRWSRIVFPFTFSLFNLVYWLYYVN
T3 sequence (P18506 25-449): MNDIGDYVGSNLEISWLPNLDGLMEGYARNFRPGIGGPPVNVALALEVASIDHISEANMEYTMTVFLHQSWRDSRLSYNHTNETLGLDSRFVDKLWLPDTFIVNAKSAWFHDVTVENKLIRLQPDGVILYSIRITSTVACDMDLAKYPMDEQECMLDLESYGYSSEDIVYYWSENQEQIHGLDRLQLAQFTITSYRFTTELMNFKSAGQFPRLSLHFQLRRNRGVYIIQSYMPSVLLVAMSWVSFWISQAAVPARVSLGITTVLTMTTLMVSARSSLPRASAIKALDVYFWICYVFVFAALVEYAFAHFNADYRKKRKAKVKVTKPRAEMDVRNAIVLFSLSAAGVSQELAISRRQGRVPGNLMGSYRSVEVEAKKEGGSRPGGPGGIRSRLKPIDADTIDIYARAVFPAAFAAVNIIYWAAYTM

As for `C[C@]12CC[C@@H](O)C[C@H]1CC[C@@H]1[C@@H]2CC[C@]2(C)[C@@H](C(=O)CO)CC[C@@H]12` [THDOC, tetrahydro-deoxycorticosterone], the “Ispont in the presence of modulator” value with α4β2δ receptor (THDOC 100 nM (Fig. 6b)) was 0% and 0.09895% and 0.3365%. Besides, in the assay with α4β3δ GABAARs, the “Area A1 of open time distribution (row head printed 'thdoc t2', r12)” value was “did not significantly affect” and the “Area A2 of open time distribution (thdoc t2, r14)” value is “did not significantly affect”. Moreover, in the assay on α4β3δ GABAARs (listed as thdoc), the “Area A1 of open time distribution (row head printed 'thdoc t2', r12)” value was 7.49E+01 and 60.19 and 6.51E+01 and 8.65E+01 and 4.84E+01 and 64.73 and 86.6 and 77.97 and 79.7 and 73.6; the “Area A2 of open time distribution (thdoc t2, r14)” value was 25.1 and 39.81 and 34.92 and 13.51 and 51.6 and 35.27 and 13.4 and 22.03 and 20.3 and 26.4.

`Oc1noc2c1CCNC2` [THIP, 4,5,6,7-tetrahydroisoxazolo[5,4-c]pyridin-3-ol]: the “Ispont, IMax from THIP” value at α4β3δ receptors (α4β3δ THIP (Fig. 1d), THIP 3 mM, PTX 100 µM, individual cells) is 3.988% and 7.572% and 10.0793% and 6.822% and 17.8571% and 28.6432% and 15.8524%; in the assay with α1β3γ2L receptors, 1.055% and 0.4509% and 8.753% and 3.449% and 0.8828% and 1.773%. In addition, the “IMax compared to GABA” value at α4β3δ receptors (α4β3δ, THIP 3 mM) is “larger”.

On to `CC(=O)[C@H]1CC[C@H]2[C@@H]3CC[C@H]4C[C@H](O)CC[C@]4(C)[C@H]3CC[C@]12C` [allopregnanolone], for which the “Ispont in the presence of modulator” value in the assay with α4β2δ receptor (AP 100 nM (Fig. 6b), listed as AP) is 0% and 0.09895% and 0.3946%.

Turning to “pregnenolone sulphate [Pregnenolone sulfate]”, the “Ispont in the presence of modulator” value on α4β3δ receptors (α4β3δ) was “reduced”; on α4β3δ receptors (α4β3δ, listed as PS) it was 5.825% and 4.865% and 6.452% and 3.37% and 4.547% and 9.251% and 6.244% and 4.926%; in the assay on α4^Q246Mβ3δ receptors it was “reduced”; with α4^Q246Mβ3δ receptors (listed as PS), 3.665% and 9.322% and 7.162% and 6.1828% and 3.237% and 4.8719% and 4.011%; in the assay on α4β3^S409Aδ receptors it was “reduced”; in the assay with α4β3^S409Aδ receptors (listed as PS), 0.7651% and 0.3749% and 0.1269% and 0.9165% and 2.143% and 0.1295% and 1.652%.
